Experimental data published in PubChem BioAssay (NCI).
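Briefly, cells in 96-well plates were exposed to five compound concentrations for 48 h, and endpoints were estimated by linear interpolation. At the GI50, growth is halved. TGI marks complete inhibition of growth.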

Key:
Assay in all cases: NCI tumour cell line growth inhibition, 48 h
[1] = system: NCI-H226 lung
[2] = system: NCI-H23 lung
[3] = system: NCI-H460 lung
[4] = system: NCI-H522 lung
[5] = system: NCI/ADR-RES ovarian
[6] = system: OVCAR-3 ovarian
[7] = system: OVCAR-4 ovarian
[8] = system: OVCAR-5 ovarian
[9] = system: OVCAR-8 ovarian
[10] = system: PC-3 prostate
[11] = system: RPMI-8226 leukemia
[12] = system: RXF 393 renal
[13] = system: SF-268 CNS
[14] = system: SF-295 CNS
[15] = system: SF-539 CNS
[16] = system: SK-MEL-2 melanoma
[17] = system: SK-MEL-28 melanoma
[18] = system: SK-MEL-5 melanoma
[19] = system: SK-OV-3 ovarian
[20] = system: SN12C renal
[21] = system: SNB-19 CNS
[22] = system: SNB-75 CNS
[23] = system: SR leukemia
[24] = system: SW-620 colon
[25] = system: T-47D breast
[26] = system: TK-10 renal
[27] = system: U251 CNS
[28] = system: UACC-257 melanoma
[29] = system: UACC-62 melanoma
[30] = system: UO-31 renal

Work on `COc1cc(Cn2c(C(F)(F)F)cc3c(Cl)ncnc32)ccn1` yielded a TGI [1] of 32.3 µM, a GI50 [2] of 2.19 µM and a TGI [2] of 4.91 µM. The GI50 [3] was 2.69 µM, the TGI [3] was 8.19 µM and the GI50 [4] was 3.28 µM. It also gave a TGI [4] of 15.3 µM, a GI50 [5] of 15.3 µM and a TGI [5] of 33.7 µM. For the same molecule, the GI50 [6] was 2.32 µM, the TGI [6] was 7.05 µM and the GI50 [7] was 12 µM. It also gave a TGI [7] of 26.7 µM, a GI50 [8] of 16 µM and a TGI [8] of 32.4 µM. For the same molecule, the GI50 [9] was 11.4 µM, the TGI [9] was 26.6 µM and the GI50 [10] was 5.56 µM. The TGI [10] was 20.8 µM, the GI50 [11] was 15.4 µM and the TGI [11] was 78.6 µM. For the same molecule, the GI50 [12] was 7.9 µM, the TGI [12] was 22.4 µM and the GI50 [13] was 2.47 µM. It also gave a TGI [13] of 9.37 µM, a GI50 [14] of 16.8 µM and a TGI [14] of 32.5 µM. The GI50 [15] was 13.8 µM, the TGI [15] was 26.7 µM and the GI50 [16] was 9.95 µM. For the same molecule, the TGI [16] was 22.5 µM, the GI50 [17] was 4.6 µM and the TGI [17] was 16.1 µM. For the same molecule, the GI50 [18] was 3.9 µM, the TGI [18] was 14.1 µM and the GI50 [19] was 17.1 µM. For the same molecule, the TGI [19] was 32.3 µM, the GI50 [20] was 9.21 µM and the TGI [20] was 21.5 µM. It also gave a GI50 [21] of 11.8 µM, a TGI [21] of 24.1 µM and a GI50 [22] of 1.78 µM. The TGI [22] was 7.27 µM, the GI50 [23] was 3.61 µM and the TGI [23] was greater than 100 µM. The GI50 [24] was 3.86 µM, the TGI [24] was 16.7 µM and the GI50 [25] was 13.4 µM. It also gave a TGI [25] of 61.6 µM, a GI50 [26] of 18.9 µM and a TGI [26] of 46.9 µM. For the same molecule, the GI50 [27] was 15 µM, the TGI [27] was 28.9 µM and the GI50 [28] was 8.49 µM. The TGI [28] was 21.7 µM, the GI50 [29] was 8.1 µM and the TGI [29] was 20.6 µM. It also gave a GI50 [30] of 8.66 µM and a TGI [30] of 24.1 µM.
